Values quoted from earlier work, collected in patent US9555113B2, “Compositions with a rheological modifier to reduce dissolution variability” (Durect Corporation, priority 2013, dated 2017).
Read-outs that look alike come from different tables or passages of the source.

In the case of Sucrose Acetate Isobutyrate [SAIB], the viscosity (pure SAIB at 80° C.) is listed as “approximately 600 cP” and the viscosity (pure SAIB at ambient temperature (RT)) is listed as “approximately 2,000,000 cP”.
